{
  "source": "paper PMC9161616",
  "about": "“A first-in-human phase 1/2 study of FGF401 and combination of FGF401 with spartalizumab in patients with hepatocellular carcinoma or biomarker-selected solid tumors” (Journal of Experimental & Clinical Cancer Research : CR, 2022)",
  "key": {"phospho-FGFR4": {"system": "phospho-FGFR4", "test": "Preclinical in vivo phospho-FGFR4 inhibition", "conditions": "equivalent of 52.1 nM"}, "[1]": {"system": "HCC or other solid tumors expressing FGFR4 and KLB", "test": "Antitumor activity per RECIST v1.1, FGF401 single agent", "type": "in vivo, human", "source_text": "The primary endpoint for the phase 1 parts was the incidence of DLTs evaluated. The probability of DLTs during the evaluation period was estimated for patients in the dose determining set (DDS) for each treatment arm, FGF401 single agent and FGF401 + spartalizumab combination, to estimate respective MTDs. DDS for the phase 1 single agent or combination comprised safety set patients who either experienced a DLT or had confirmation by both the sponsor and investigators that no DLT occurred during the first cycle, C1 (first 2 cycles: C1, C2) based on at least 66% of planned doses administered in C1 (C1 and C2) with a minimum of 21 (42) days of observation following the first dose. For phase 2, the primary efficacy endpoint to investigate the antitumor activity of FGF401 included time to tumor progression assessed in groups 1 and 2, and overall response rate (ORR) in group 3 based on local assessment per Response Evaluation Criteria in Solid Tumors (RECIST) v1.1.\nAntitumor activity was locally assessed as per RECIST v1.1 and immune-related response criteria (irRC) (only for combination arm) and evaluated using the following endpoints: best overall response, overall response rate (ORR), disease control rate (DCR), time to tumor progression, and overall survival (OS). Estimation of best overall response (BOR) was based on assessments collected no later than 30 days after the last study treatment administration date for RECIST v1.1 and 150 days for irRC.\nThe primary and secondary efficacy outcomes were analyzed in the full analysis set according to the assigned treatment stratified by study group, which we defined as a subgroup (fast/fed, group 1/2/3) of patients who were administered with similar dose levels on a given treatment arm and phase. The results have been presented as per RECIST v1.1. The number of patients having BOR was provided along with ORR and DCR with 95% exact binomial CIs (Clopper-Pearson). Waterfall plots for the phase 1 parts depicted the best percentage change from baseline in sum of longest diameters (SOD). […] The estimate at a given time point was the estimated probability that a patient would remain event free up to that time point. A positive trend regarding the activity of FGF401 in groups 1 and 2 was concluded if the observed lower limit of their respective 90% CI was no less than their expected median TTPs of 1.5 months and 2.2 months estimated in the absence of FGF401. KM plots were also used to estimate OS rate with one-sided 95% CI at 3 months, 5 months, 7 months, and 9 months for single agent phase 1 overall and phase 2: groups 1, 2; for single agent phase 2 – group 3, OS, and progression free survival (PFS) were calculated regardless of RP2D but for overall tumor type.\nExploratory biomarker analyses were conducted using full analysis set to assess efficacy and FGF19 signaling inhibition associated with FGF401. The best tumor percentage change from baseline as per RECIST v1.1 were investigated by FGF19 status (positive/negative) as determined through RT-qPCR and IHC assay. An evaluable RT-qPCR sample was considered FGF19+ if mean threshold cycle for FGF19 was ≤35, and FGF19- otherwise. Among the patients with evaluable IHC assay samples, those who had % cellular positivity > 0 were considered FGF19 + ."}, "[2]": {"conditions": "single agent, phase I and phase II in total"}},
  "data": [
    {"smiles": "COCCNc1cc(NC(=O)N2CCCc3cc(CN4CCN(C)CC4=O)c(C=O)nc32)ncc1C#N", "note": "[FGF401, roblitinib]", "values": [
      {"measurement": "IC90 equivalent in human plasma", "setting": "phospho-FGFR4", "value": "~ 23 ng/mL"},
      {"measurement": "median TTP", "setting": "[1]; 120 mg, phase 1, fed and fasted combined, N = 45", "value": 2.63, "unit": "months"},
      {"measurement": "median OS", "setting": "[1]; 120 mg, phase 1, fed and fasted combined, n/N = 38/45", "value": 5.72, "unit": "months"},
      {"measurement": "patients reporting PR at RP2D in phase 2", "setting": "[1]; all in patients with HCC", "value": 4, "unit": "patients"},
      {"measurement": "response by FGF19 IHC status", "setting": "[1]; patients with HCC, phase 1/2, 27 FGF19 positive, 33 negative", "value": "trend for better response among the FGF19 IHC-positive patients"},
      {"measurement": "responses in patients with other tumor types", "setting": "[1]; phase 1", "value": "no responses"},
      {"measurement": "partial response (PR)", "setting": "[1]; phase 1, 59 evaluable patients with HCC, 80 mg fasted, 80 mg fed, 150 mg fasted, each", "value": 3, "unit": "patients"},
      {"measurement": "complete response (CR)", "setting": "[1]; phase 1, 59 evaluable patients with HCC, 120 mg, fasted", "value": 1, "unit": "patient"},
      {"measurement": "probability estimate of remaining event free (90% CI) at 9 months", "setting": "[1]; phase 2 group 1", "value": "30.4 [19.1, 100]"},
      {"measurement": "PR", "setting": "[1]; phase 2 group 1 (n = 28), 120 mg qd", "value": 2, "unit": "patients"},
      {"measurement": "probability estimate of remaining event free (90% CI) at 9 months", "setting": "[1]; phase 2 group 2", "value": "61.5 (49.8, 100)"},
      {"measurement": "PR", "setting": "[1]; phase 2 group 2 (n = 31), 120 mg qd", "value": 2, "unit": "patients"},
      {"measurement": "probability estimate of remaining event free (90% CI) at 9 months", "setting": "[1]; phase 2 group 3", "value": "24.7 [12.6, 100]"},
      {"measurement": "CR", "setting": "[1]; [2]", "value": 1, "unit": "patients"},
      {"measurement": "PR", "setting": "[1]; [2]", "value": 7, "unit": "patients"},
      {"measurement": "patients with objective responses", "setting": "[1]; [2]", "value": 8, "unit": "patients"},
      {"measurement": "association of FGF19 transcript level (RT-qPCR) with response", "setting": "[1]; single-agent arm, prescreening biopsy", "value": "no clear association with response"}
    ]}
  ]
}
